Test results taken from patent US20240376085A1 (Janssen Pharmaceutica NV, priority 2021, published 2024).

How the values were obtained:
[1] = system: IL-17A-induced G-CSF production in human normal keratinocyte (NHK); assay: NHK assay: IL-17A-induced G-CSF production in normal human keratinocytes; format: cell-based; details: 24 h, IL-17A 5 ng/mL, average if tested more than once
Outline: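 Compound titrations are first mixed with recombinant human IL-17A for 1 h at room temperature. The mixture goes onto adult normal human keratinocytes (final IL-17A 5 ng/mL, 5% FBS, 0.2% DMSO) for 24 h at 37 °C. Secreted G-CSF is then measured by HTRF and IC50 fitted.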

IL-17A : IL-17RA binding = biological target: T1, IL-17A : IL-17RA binding (Homo sapiens, UniProt Q16552, K93Q); assay: IL-17A(FLAG-tagged):IL-17RA(His-tagged) binding disruption Eu-HTRF assay, Protocol 1; details: FLAG-IL-17A 2.5 nM at 2x final concentration; average if tested more than once
T1 construct: Name: IL-17A-Flag
T1 sequence (Q16552 with tags, fused parts or gaps K93Q): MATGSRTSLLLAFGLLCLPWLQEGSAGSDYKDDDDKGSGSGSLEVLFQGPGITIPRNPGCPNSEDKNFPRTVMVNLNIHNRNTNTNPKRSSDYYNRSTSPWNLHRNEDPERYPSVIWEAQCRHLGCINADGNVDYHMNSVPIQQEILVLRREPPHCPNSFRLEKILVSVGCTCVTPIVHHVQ
Outline: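 IC50 came from a one-site competition fit of the acceptor/donor (665/620 nm) HTRF ratio. His-tagged IL-17RA, Eu-anti-FLAG and D2-anti-His were added after a 1 h rt compound preincubation with FLAG-tagged IL-17A dimer in PBS/0.01% Triton X-100, followed by 2 h at rt before reading.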

| IC50 (IL-17A : IL-17RA binding) [nM] | SMILES | IC50 ([1]; Homo sapiens, Keratinocyte) [nM] | IC50 [1] [nM] |
| --- | --- | --- | --- |
| > 100 | C[C@@H](NC(=O)CCC(F)(F)F)c1ccc2[nH]c([C@@H](NC(=O)c3cn(CCC(F)(F)F)cn3)C3CCC(F)(F)CC3)nc2c1 [Example 226, N—((S)-(4,4-Difluorocyclohexyl)(5-((R)-1-(4,4,4-trifluorobutanamido)ethyl)-1H-benzo[d]imidazol-2-yl)methyl)-1-(3,3,3-trifluoropropyl)-1H-imidazole-4-carboxamide] | > 100 |  |
| > 100 | C[C@@H](NC(=O)CCC(F)(F)F)c1ccc2[nH]c([C@@H](NC(=O)c3nc(CCC(F)(F)F)cs3)C3CCC(F)(F)CC3)nc2c1 [Example 201, N—((S)-(4,4-Difluorocyclohexyl)(5-((R)-1-(4,4,4-trifluorobutanamido)ethyl)-1H-benzo[d]imidazol-2-yl)methyl)-4-(3,3,3-trifluoropropyl) thiazole-2-carboxamide] | > 100 |  |
| > 100 | CC(C)n1nccc1C(=O)N[C@H](c1nc2cc([C@@H](NC(=O)CC3CC(F)(F)C3)C3CC3)ccc2[nH]1)C1CCC(F)(F)CC1 [Example 146, N—((S)-(5-((S)-Cyclopropyl(2-(3,3-difluorocyclobutyl)acetamido)methyl)-1H-benzo[d]imidazol-2-yl)(4,4-difluorocyclohexyl)methyl)-1-isopropyl-1H-pyrazole-5-carboxamide] | > 100 |  |
| > 100 | C[C@@H](NC(=O)CCC(F)(F)F)c1ccc2[nH]c([C@@H](NC(=O)c3cnn(CCC(F)(F)F)c3)C3CCC(F)(F)CC3)nc2c1 [Example 1, N—[(S)-(4,4-Difluorocyclohexyl)-[6-[(1R)-1-(4,4,4-trifluorobutanoylamino)ethyl]-1H-benzimidazol-2-yl]methyl]-1-(3,3,3-trifluoropropyl)pyrazole-4-carboxamide] | > 100 |  |
| > 100 | CC(CC(=O)N[C@H](C)c1ccc2nc([C@@H](NC(=O)c3cc(F)ccc3F)C3CCC(F)(F)CC3)[nH]c2c1)C(F)(F)F (single isomer, unassigned) [Example 136, N—((S)-(4,4-Difluorocyclohexyl)(6-((R)-1-((R*)-4,4,4-trifluoro-3-methylbutanamido)ethyl)-1H-benzo[d]imidazol-2-yl)methyl)-2,5-difluorobenzamide] | > 100 |  |
| < 50 | Cc1nonc1C(=O)N[C@H](c1nc2cc([C@H](NC(=O)CCC(F)(F)F)C3CC3)ccc2[nH]1)[C@@H]1CCCC(F)(F)C1 [Example 263, N—((S)-(5-((R)-Cyclopropyl(4,4,4-trifluorobutanamido)methyl)-1H-benzo[d]imidazol-2-yl)((R)-3,3-difluorocyclohexyl)methyl)-4-methyl-1,2,5-oxadiazole-3-carboxamide] | 50 to 100 |  |
| > 100 | C[C@@H](NC(=O)CCC(F)(F)F)c1ccc2[nH]c(C(CC(C)(C)C(F)(F)F)NC(=O)c3ncnn3CC3CC3)nc2c1 (single isomer, unassigned) [Example 195, 1-(Cyclopropylmethyl)-N—((S*)-4,4,4-trifluoro-3,3-dimethyl-(5-((R)-1-(4,4,4-trifluorobutanamido)ethyl)-1H-benzo[d]imidazol-2-yl)butyl)-1H-1,2,4-triazole-5-carboxamide] | > 100 |  |
| < 50 | C[C@@H](O[C@H](C)C(F)(F)F)[C@H](NC(=O)c1nonc1C1CC1)c1nc2ccc([C@H](NC(=O)C[C@H]3CC3(F)F)C3(C#N)CC3)cc2[nH]1 [Example 269, N-((1R,2R)-1-(6-((S)-(1-Cyanocyclopropyl)(2-((S)-2,2-difluorocyclopropyl)acetamido)methyl)-1H-benzo[d]imidazol-2-yl)-2-(((R)-1,1,1-trifluoropropan-2-yl)oxy)propyl)-4-cyclopropyl-1,2,5-oxadiazole-3-carboxamide] | < 50 |  |
| 50 to 100 | Cc1nonc1C(=O)N[C@H](c1nc2ccc([C@H](NC(=O)CC3CC(F)(F)C3)C3CC3)cc2[nH]1)[C@@H]1CCCCO1 (relative stereo) [Example 248, N—((R*)-(6-((R)-Cyclopropyl(2-(3,3-difluorocyclobutyl)acetamido)methyl)-1H-benzo[d]imidazol-2-yl)((S*)-tetrahydro-2H-pyran-2-yl)methyl)-4-methyl-1,2,5-oxadiazole-3-carboxamide] | > 100 |  |
| > 100 | C[C@@H](NC(=O)CCC(F)(F)F)c1ccc2[nH]c([C@@H](NC(=O)[C@@H]3C[C@@H]3C#N)C3CCC(F)(F)CC3)nc2c1 [Example 102, cis-(1,2)-2-Cyano-N—((S)-(4,4-difluorocyclohexyl)(5-((R)-1-(4,4,4-trifluorobutanamido)ethyl)-1H-benzo[d]imidazol-2-yl)methyl)cyclopropane-1-carboxamide] | > 100 |  |
| < 50 | CC(C)(C[C@H](NC(=O)c1nonc1C1CC1)c1nc2ccc([C@H](NC(=O)CC3CC(F)(F)C3)C3CC3)cc2[nH]1)C(F)(F)F [Example 178, 4-Cyclopropyl-N—((S)-1-(6-((R)-cyclopropyl(2-(3,3-difluorocyclobutyl)acetamido)methyl)-1H-benzo[d]imidazol-2-yl)-4,4,4-trifluoro-3,3-dimethylbutyl)-1,2,5-oxadiazole-3-carboxamide] | < 50 |  |
| 50 to 100 | CC(C)n1nccc1C(=O)N[C@H](c1nc2cc([C@H](NC(=O)CC3CC(F)(F)C3)C3CC3)ccc2[nH]1)C1CCC(F)(F)CC1 [Example 142, N—((S)-(5-((R)-Cyclopropyl(2-(3,3-difluorocyclobutyl)acetamido)methyl)-1H-benzo[d]imidazol-2-yl)(4,4-difluorocyclohexyl)methyl)-1-isopropyl-1H-pyrazole-5-carboxamide] | < 50 |  |
| < 50 | Cc1nonc1C(=O)N[C@H](c1nc2ccc([C@H](NC(=O)CC3CC(F)(F)C3)C3CC3)cc2[nH]1)[C@@H]1C[C@@H]2[C@H](C1)C2(F)F [Example 237, N—((S)-(6-((R)-Cyclopropyl(2-(3,3-difluorocyclobutyl)acetamido)methyl)-1H-benzo[d]imidazol-2-yl)((1R,3s,5S)-6,6-difluorobicyclo[3.1.0]hexan-3-yl)methyl)-4-methyl-1,2,5-oxadiazole-3-carboxamide] | 50 to 100 |  |
| > 100 | C[C@@H](NC(=O)CCC(F)(F)F)c1ccc2nc([C@@H](NC(=O)c3ccnn3CCC(F)(F)F)C3CCC(F)(F)CC3)[nH]c2c1 [Example 121, N—((S)-(4,4-Difluorocyclohexyl)(6-((R)-1-(4,4,4-trifluorobutanamido)ethyl)-1H-benzo[d]imidazol-2-yl)methyl)-1-(3,3,3-trifluoropropyl)-1H-pyrazole-5-carboxamide] | < 50 |  |
| > 100 | C[C@@H](NC(=O)CCC(F)(F)F)c1ccc2[nH]c([C@@H](NC(=O)c3csc(CCC(F)(F)F)n3)C3CCC(F)(F)CC3)nc2c1 [Example 224, N—((S)-(4,4-Difluorocyclohexyl)(5-((R)-1-(4,4,4-trifluorobutanamido)ethyl)-1H-benzo[d]imidazol-2-yl)methyl)-2-(3,3,3-trifluoropropyl)thiazole-4-carboxamide] | > 100 |  |
| > 100 | C[C@@H](NC(=O)CCC(F)(F)F)c1ccc2[nH]c([C@@H](NC(=O)c3ncnn3CCC(F)F)C3CCC(F)(F)CC3)nc2c1 [Example 41, N—[(S)-(4,4-Difluorocyclohexyl)-[6-[(1R)-1-(4,4,4-trifluorobutanoylamino)ethyl]-1H-benzimidazol-2-yl]methyl]-2-(3,3-difluoropropyl)-1,2,4-triazole-3-carboxamide] | > 100 |  |
| < 50 | O=C(CC1CC(F)(F)C1)N[C@@H](c1ccc2[nH]c([C@@H](NC(=O)c3nonc3C3CC3)[C@H]3[C@@H]4CC(F)(F)C[C@@H]43)nc2c1)C1CC1 [Example 266, 4-Cyclopropyl-N—((S)-(5-((R)-cyclopropyl(2-(3,3-difluorocyclobutyl)acetamido)methyl)-1H-benzo[d]imidazol-2-yl)((1R,5S,6r)-3,3-difluorobicyclo[3.1.0]hexan-6-yl)methyl)-1,2,5-oxadiazole-3-carboxamide] | < 50 |  |
| > 100 | C[C@@H](NC(=O)CCC(F)(F)F)c1ccc2[nH]c([C@@H](NC(=O)c3ccc(CCC(F)(F)F)s3)C3CCC(F)(F)CC3)nc2c1 [Example 221, N—((S)-(4,4-Difluorocyclohexyl)(5-((R)-1-(4,4,4-trifluorobutanamido)ethyl)-1H-benzo[d]imidazol-2-yl)methyl)-5-(3,3,3-trifluoropropyl)thiophene-2-carboxamide] | > 100 |  |
| > 100 | C[C@@H](NC(=O)CCC(F)(F)F)c1ccc2[nH]c([C@@H](NC(=O)c3ncn(CC4CC4)n3)C3CCC(F)(F)CC3)nc2c1 [Example 29, 1-(Cyclopropylmethyl)-N—[(S)-(4,4-difluorocyclohexyl)-[6-[(1R)-1-(4,4,4-trifluorobutanoylamino)ethyl]-1H-benzimidazol-2-yl]methyl]-1,2,4-triazole-3-carboxamide] | > 100 |  |
| 50 to 100 | Cc1nonc1C(=O)N[C@@H](CC(C)(C)C(F)(F)F)c1nc2ccc([C@H](NC(=O)CC(C)C(F)(F)F)C3CC3)cc2[nH]1 (single isomer, unassigned) [Example 180, N—((S)-1-(6-((R)-Cyclopropyl((S*)-4,4,4-trifluoro-3-methylbutanamido)methyl)-1H-benzo[d]imidazol-2-yl)-4,4,4-trifluoro-3,3-dimethylbutyl)-4-methyl-1,2,5-oxadiazole-3-carboxamide] |  | > 100 |
